Calls of active or inactive are those of the source. No cut-off for these calls is given here.
Key:
[1] = Induction of copper transporting activity in human HeLa cells assessed as fold increase in intracellular copper levels at 2 uM incubated for 4 hrs by ICP-MS analysis; format: functional
HepG2 [2] = experiment: Cytotoxicity against human HepG2 cells assessed as cell viability at 0.1 to 5 uM measured at 24 hrs by MTT assay; format: functional, cell-based; conditions: dose 0.1-5 µM
Hepatocyte [3] = experiment: Cytotoxicity against mouse Hepatocyte assessed as cell viability at 0.1 to 5 uM measured at 24 hrs by MTT assay; format: toxicity, cell-based; conditions: hepatocytes, dose 0.1-5 µM
HepG2 [4] = experiment: Cytotoxicity against human HepG2 cells assessed as cell viability at 0.1 to 5 uM compound administrated as copper complex measured at 24 hrs by MTT assay; format: functional, cell-based; conditions: dose 0.1-5 µM
Hepatocyte [5] = experiment: Cytotoxicity against mouse Hepatocyte assessed as cell viability at 0.1 to 5 uM compound administrated as copper complex measured at 24 hrs by MTT assay; format: toxicity, cell-based; conditions: hepatocytes, dose 0.1-5 µM
HepG2 [6] = experiment: Anti-NAFLD activity in palmitic acid human HepG2 NAFLD cell model assessed as cell viability at 0.1 to 0.5 uM compound administrated as copper complex measured at 24 hrs by MTT assay; format: functional, cell-based; conditions: dose 0.1-0.5 µM
HepG2 [7] = experiment: Anti-NAFLD activity in palmitic acid human HepG2 NAFLD cell model assessed as increase in ROS level at 5 uM compound administrated as copper complex measured at 24 hrs by DCFH-DA probe based flow cytometry analysis; format: functional

SMILES	fold change (FC) [1]	Activity (HepG2 [2])	Activity (Hepatocyte [3])	Activity (HepG2 [4])	Activity (Hepatocyte [5])	Activity (HepG2 [6])	Activity (HepG2 [7])
O=c1c(O)c(-c2ccc3c(Cl)ccc(O)c3n2)oc2ccccc12	~5	Active	Non-toxic	Active	Non-toxic	Active	Active
COc1ccc2oc(-c3ccc4cccc(O)c4n3)c(O)c(=O)c2c1	~5	Active	Non-toxic	Active	Non-toxic	Active	Active

Source: ChEMBL document CHEMBL6115034, “Pseudonatural Flavonols as Novel Copper Ionophores for NAFLD Intervention via Synergistic Copper Delivery and Flavonoid Activity” (J Med Chem, 2025)
